Measurements from patent publication US20120149902A1, “PYRROLO[2,3-D]PYRIMIDINE DERIVATIVE” (UBE INDUSTRIES, LTD., priority 2009, published 2012).

Tests used:
[1] = test system: HER2 overexpressed gastric cancer cell line NCI-N87; experiment: Cytotoxic activity (in vitro), CellTiter-Glo viable cell count; format: cell-based; conditions: Homo sapiens, NCI-N87, 72 h, NCI-N87, cultured for 72 hours
Description: The cytotoxic activity of a compound of the present invention was investigated using a HER2 overexpressed gastric cancer cell line NCI-N87. Specifically, an appropriate amount of cells was seeded into a 96-well plate for cell culture at 50 μL/well, and precultured overnight at 37° C. under 5% —CO2 condition. A solution of a test compound in DMSO with dilution series was diluted with medium, and added to the precultured cells at the volume of 50 μL/well. The mixture was prepared such that the final concentration of DMSO became 0.1%. After the mixture was cultured for 72 hours at 37° C. under 5% —CO2 condition, 100 μL/well of CellTiter-Glo solution (Promega, Madison, Wis.) was added, the luminescence was measured using a luminometer (Wallac ARVO™ SX) 10 minutes later, and the viable cell count was determined.

[2] = target: T1, purified human recombinant HER2 kinase (Lys676-Val1255, GST fusion) (Homo sapiens, UniProt P04626); experiment: HER2 kinase enzyme inhibitory activity (HTRF); format: biochemical; conditions: 200 μM ATP, FLT3 analogous peptide substrate, 60 minutes at room temperature
T1 construct: human recombinant HER2 kinase (Lys676-Val1255, GST fusion); GST
T1 sequence (P04626 676-1255): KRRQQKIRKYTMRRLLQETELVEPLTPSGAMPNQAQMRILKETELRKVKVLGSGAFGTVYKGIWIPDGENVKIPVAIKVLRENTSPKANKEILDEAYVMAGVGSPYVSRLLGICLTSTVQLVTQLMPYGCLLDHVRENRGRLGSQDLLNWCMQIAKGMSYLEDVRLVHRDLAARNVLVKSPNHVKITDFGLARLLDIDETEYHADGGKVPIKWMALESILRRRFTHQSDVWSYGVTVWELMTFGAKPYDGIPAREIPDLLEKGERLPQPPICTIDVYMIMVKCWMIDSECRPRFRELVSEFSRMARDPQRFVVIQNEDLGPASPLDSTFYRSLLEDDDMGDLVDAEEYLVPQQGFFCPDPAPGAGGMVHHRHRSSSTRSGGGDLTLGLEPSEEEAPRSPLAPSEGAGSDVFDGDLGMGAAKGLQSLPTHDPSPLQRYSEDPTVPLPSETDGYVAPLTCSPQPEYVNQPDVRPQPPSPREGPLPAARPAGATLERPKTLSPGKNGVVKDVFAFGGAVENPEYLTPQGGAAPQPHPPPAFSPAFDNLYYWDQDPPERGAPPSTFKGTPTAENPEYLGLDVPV
Description: The HER2 kinase enzyme inhibitory activity of a compound of the present invention was evaluated by using a purified human recombinant HER2 kinase (Lys676-Val1255, GST fusion) and a synthetic peptide as a substrate, and detecting the phosphorylation level of the substrate by the HTRF method (homogeneous time resolved fluorescence method). Specifically, 25 ng/well of activated HER2, 200 μM of ATP, 200 ng/well of FLT3 analogous peptide (biotin label, peptide sequence is AGGSSDNEYFYVDF), and test compound (final concentration 0.01 nM to 30 μM) were mixed in kinase reaction buffer (60 mM HEPES, 5 mM MgCl2, 5 mM MnCl2, 3 mM Na3VO4, 1.25 mM DTT, pH 7.5) to prepare 50 μL/well of total reaction volume, and the mixture was reacted for 60 minutes at room temperature. Then, the phosphorylation reaction was stopped and HTRF reaction was carried out by adding 25 μL/well of PBS solution comprising the following components and reacting the mixture for 12 to 16 hours at 4° C. The following components were dissolved in PBS (pH 7.0) to prepare the PBS solution composition: 60 mM EDTA (final concentration 20 mM), 1.2 M KF (final concentration […]), 1 mg/mL BSA (final concentration 333 μg/mL), 6 μg/mL anti-PY20-Cryptate (Cisbio international, France, final concentration 2 μg/mL), and 15 μg/mL Streptavidin labeled with XL665 (Cisbio international, France, final concentration 5 μg/mL).

[3] = test system: HER2 overexpressed gastric cancer cell line; experiment: In vivo anti-tumor effect, subcutaneous tumor transplant in nude mouse; conditions: dosage 60 mg/kg, oral, daily except Saturday and Sunday, 2 to 4 weeks, read-out: Tumor growth inhibition ratio (%)
Description: The anti-tumor effect in vivo of a compound of the present invention was evaluated using a HER2 overexpressed gastric cancer cell line. Specifically, a tumor fragment with about 5 mm square was transplanted subcutaneously using a transplantation needle, or an appropriate number of tumor cells was suspended in saline (Otsuka Pharmaceutical Co., Ltd.) and transplanted under the skin of the right axillary region of a nude mouse using a glass syringe equipped with a two-stage needle for subcutaneous injection. After the confirmation of the engraftment of the transplanted tumors, the mice were classified into groups depending on the tumor volume. The test compounds: the Example Compounds 1-1, 1-2, 1-5, 1-8, 1-13, 1-14, 1-15, 1-19, 1-20, 1-22, 2-1, 2-3, and 3-2 were each dissolved or suspended in an appropriate medium and orally administered forcedly to a mouse. The period of administration was varied from 2 weeks to 4 weeks depending on tumor, and the administration was carried out daily with drug holidays of Saturday and Sunday. The major axis (mm) and the minor axis (mm) of a tumor were measured sequentially using an electronic digital vernier caliper, and evaluated by the tumor growth inhibition ratio (GI %) on the judgement day (in principle, the next day of the final administration) using the following calculating formula.
A: Average tumor volume on the judgement day of the group to which a compound was administered (*)
B: Average tumor volume on the judgement day of the untreated control group (*)
*: The tumor volume is calculated by ½×[major axis of tumor]×[minor axis of tumor]^2.

IC50 [2]: < 10 nM
Structure (SMILES): C#CCNC1CCN(Cc2c[nH]c3ncnc(Nc4cccc(C#C)c4)c23)CC1 [Example 3-2, (3-Ethynylphenyl) [5-(4-prop-2-ynylaminopiperidin-1-ylmethyl)-7H-pyrrolo[2,3-d]pyrimidin-4-yl]amine]
GI50 [1]: < 20 nM | inhibition in vivo at 60 mg/kg [3]: 91%
